In patent publication US20260258003A1, “SLACK-ACTIVATING COMPOUNDS AND THEIR MEDICAL USE” (Johann Wolfgang Goethe-Universität Frankfurt am Main, priority 2023, published 2026):

Key:
human Slack = biological target: T1, human Slack (Homo sapiens, UniProt Q5JUK3); assay: FluxOR potassium ion channel assay in HEK-Slack cells; type: cell-based; conditions: Na+ free buffer with 2 mM Ca2+, 2 mM Mg2+, 0.03% DMSO, mean with 95% confidence interval; for EC50: read-out: FluxOR assay EC50; for Emax: read-out: FluxOR assay EMAX (% relative to Loxapine)
T1 construct: host or cells: HEK293
T1 sequence (Q5JUK3 1-1230): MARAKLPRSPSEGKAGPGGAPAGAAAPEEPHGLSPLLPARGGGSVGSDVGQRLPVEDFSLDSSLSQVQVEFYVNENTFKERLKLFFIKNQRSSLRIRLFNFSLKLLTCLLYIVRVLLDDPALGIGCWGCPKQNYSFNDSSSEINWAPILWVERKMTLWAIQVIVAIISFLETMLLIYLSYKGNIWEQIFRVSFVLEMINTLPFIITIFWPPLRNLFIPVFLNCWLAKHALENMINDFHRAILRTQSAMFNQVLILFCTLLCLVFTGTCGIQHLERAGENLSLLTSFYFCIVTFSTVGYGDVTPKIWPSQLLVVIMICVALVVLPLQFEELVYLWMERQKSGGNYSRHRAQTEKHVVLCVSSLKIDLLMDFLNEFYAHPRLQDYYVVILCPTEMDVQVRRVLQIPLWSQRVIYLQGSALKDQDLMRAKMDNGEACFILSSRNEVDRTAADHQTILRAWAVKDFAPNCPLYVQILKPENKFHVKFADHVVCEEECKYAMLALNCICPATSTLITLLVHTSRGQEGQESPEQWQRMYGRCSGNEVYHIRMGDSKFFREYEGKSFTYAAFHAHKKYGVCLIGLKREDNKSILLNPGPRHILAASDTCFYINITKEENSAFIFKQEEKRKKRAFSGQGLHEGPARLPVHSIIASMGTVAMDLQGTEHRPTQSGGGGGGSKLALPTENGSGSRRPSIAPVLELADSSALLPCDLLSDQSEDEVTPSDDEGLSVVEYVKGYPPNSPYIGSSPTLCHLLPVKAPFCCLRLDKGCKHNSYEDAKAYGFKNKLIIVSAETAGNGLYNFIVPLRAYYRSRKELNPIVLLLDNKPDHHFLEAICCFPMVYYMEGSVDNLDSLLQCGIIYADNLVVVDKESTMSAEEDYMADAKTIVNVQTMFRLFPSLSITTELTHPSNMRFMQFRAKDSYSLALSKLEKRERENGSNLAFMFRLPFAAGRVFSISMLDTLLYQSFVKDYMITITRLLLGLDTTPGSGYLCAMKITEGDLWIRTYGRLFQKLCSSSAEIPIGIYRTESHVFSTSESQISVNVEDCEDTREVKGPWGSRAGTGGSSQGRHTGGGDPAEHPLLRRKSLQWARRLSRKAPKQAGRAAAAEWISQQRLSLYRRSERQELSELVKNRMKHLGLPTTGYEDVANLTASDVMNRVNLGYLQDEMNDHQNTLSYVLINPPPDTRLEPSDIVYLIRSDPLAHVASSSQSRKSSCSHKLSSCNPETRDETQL
Experimental: For that purpose, cultured HEK293 cells stably expressing human Slack (herein referred to as HEK-Slack cells) were incubated with compounds in a Na^+ free buffer to prevent compound-independent Slack activation by monovalent cations^7,19.
In detail, in these experiments, the Slack-activating efficacy and potency of the novel compounds was determined using a commercial FluxOR™ Potassium Ion Channel Assay (Invitrogen). HEK293 cells stably expressing human Slack (herein referred to as HEK-Slack cells) were plated at a density of 50,000 cells per well of a poly-D-lysine coated (75 μg/mL, Sigma Aldrich) 96-well, black-walled microplate with clear bottom (Greiner Bio-One) in DMEM containing 10% FBS and 1% penicillin/streptomycin 24 hours prior to assaying.
On the experiment day, cells were loaded with FluxOR™ dye according to the manufacturer's protocol. A Na^+-free assay buffer containing 140 mM choline chloride, 5 mM KCl, 2 mM CaCl2), 2 mM MgSO4, 10 mM HEPES, 5.55 mM glucose, adjusted to pH 7.4 with KOH, was used. To reduce background fluorescence all assay components were complemented by 10% BackDrop™ Background Suppressor (Invitrogen). […]
After washing steps, cells were incubated with compounds for 30 min at 37° C. All compounds were prepared as a 33.3 mM DMSO stock and diluted at the experimental day to a final concentration of 100, 50, 25, 12.5, 6.25, and 3.125 μM in assay buffer containing […] DMSO. […] After stimulation with Tl2SO4 solution, the fluorescence was measured over 100 s (excitation 485 nm, emission 525 nm) using an Infinite M200 Microplate Reader (Tecan). Assays run in triplicate and the ratio to baseline fluorescence was calculated for all time points. Dose-response curves comprising six concentrations were performed in triplets using fluorescence/fluorescenceBaseline ratios at the 100th second.

[1] = test system: chloroquine-induced scratching behavior of mice; assay: Chloroquine-induced itch model, topical application of creme; type: in vivo; conditions: 5% in hydrophilic creme (Basiscreme DAC), topical 30 min prior to s.c. chloroquine
Experimental: Animals: Experiments were performed in 8-16 week-old C57BL/6N mice (Charles River, Sulzfeld, Germany) of either sex. The animals were housed under a 12 h light/dark cycle with access to food and water ad libitum. All experiments adhered to the Animal Research: Reporting on In Vivo Experiments (ARRIVE) guidelines and were approved by and conducted in accordance with the regulations of the local Animal Welfare authorities (Regierungspräsidium Darmstadt, Germany; approval number V54-19c20/15-FR/2011). All behavioral studies were conducted during the light cycle of the day at room temperature (20-24° C.) by an observer blinded for the treatment of the animals.
Drug formulation: A creme formulation of Compound 6 and Compound 21 was prepared by mixing a hydrophilic creme (Basiscreme DAC) with 5% of each Slack activator.
Behavioral assessment: Three to four days before the day of the experiment, the fur on the dorsolateral aspect of the neck was shaved under brief isoflurane anesthesia. On the testing day, Compound 6 creme, Compound 21 creme, or creme vehicle were applied topically on the shaved region of the neck under brief isoflurane anesthesia and the mice were habituated to a Plexiglas cylinder (30 cm in diameter) for 30 min immediately thereafter. […] The number of scratching bouts directed towards the nape of the neck was assessed over 30 min by videotaping.

[2] = test system: heart rate and breath rate of mice; assay: Pulse oximetry on conscious, freely moving mice; type: in vivo; conditions: 10 mg/kg i.p., observation period of 30 min
Experimental: Finally, potential side effects of Compound 6 were assessed by measuring cardiovascular functions by pulse oximetry.

SMILES	EC50 (human Slack)	Emax (human Slack)	chloroquine-induced scratching behavior after topical application [1]	breath rate [2]	heart rate [2]
O=c1nc(CN2CCN(C3=Nc4ccccc4Oc4ccc(C(F)(F)F)cc43)CC2)[nH][nH]1 [Compound 11, 5-((4-(2-(Trifluoromethyl)dibenzo[b,f][1,4]oxazepin-11-yl)piperazin-1-yl)methyl)-1,2-dihydro-3H-1,2,4-triazol-3-one]	10.7 µM	199%	–	–	–
O=c1nc(CN2CCN(C3=Nc4cc(F)ccc4Oc4ccc(C(F)(F)F)cc43)CC2)[nH][nH]1 [Compound 18, 5-((4-(8-Fluoro-2-(trifluoromethyl)dibenzo[b,f][1,4]oxazepin-11-yl)piperazin-1-yl)methyl)-1,2-dihydro-3H-1,2,4-triazol-3-one]	11.2 µM	127%	–	–	–
O=c1nc(CN2CCN(C3=Nc4cc(F)ccc4Oc4ccc(Cl)cc43)CC2)[nH][nH]1 [Compound 19, 5-((4-(2-Chloro-8-fluorodibenzo[b,f][1,4]oxazepin-11-yl)piperazin-1-yl)methyl)-1,2-dihydro-3H-1,2,4-triazol-3-one]	21.1 µM	117%	–	–	–
O=c1nc(CN2CCCN(C3=Nc4ccccc4Oc4ccc(C(F)(F)F)cc43)CC2)[nH][nH]1 [Compound 20, 5-((4-(2-(Trifluoromethyl)dibenzo[b,f][1,4]oxazepin-11-yl)-1,4-diazepan-1-yl)methyl)-1,2-dihydro-3H-1,2,4-triazol-3-one]	26.2 µM	129%	–	–	–
OCCN1CCN(C2=Nc3cc(F)ccc3Oc3ccc(C(F)(F)F)cc32)CC1 [Compound 21, 2-(4-(8-Fluoro-2-(trifluoromethyl)dibenzo[b,f][1,4]oxazepin-11-yl)piperazin-1-yl) ethan-1-ol]	10.5 µM	264%	significantly ameliorated scratching behavior	–	–
CN1CC[C@]23c4c5ccc(O)c4O[C@H]2[C@@H](O)C=C[C@H]3[C@H]1C5 [morphine, reference compound]	–	–	–	significantly reduced	significantly reduced
